Results reported in patent publication US5830881A, “L-2'3',dideoxy nucleoside analogs as anti-hepatitus B (HBV) agents” (priority 1996, dated 1998).
Where two headings read alike, the source gives them in different places.

What was measured:
[1] = system: human immunodeficiency virus (HIV); conditions: in words, literature, cited from earlier work
Hepatitis B virus = conditions: in words; literature; cited from earlier work
mitochondrial DNA = conditions: cited from earlier work; for IC50: data from published literature, read-out: Anti-mitochondrial DNA ID50
CEM cells [2] = conditions: cited from earlier work; for CC50: data from published literature, 4320 min, read-out: Cytotoxicity ID50
HBV [3] = conditions: data from published literature; read-out: Anti-HBV ID50; cited from earlier work
HIV-1 [4] = conditions: data from published literature; read-out: Anti-HIV ID50; cited from earlier work
[5] = system: Hepatitis B viral infections; conditions: in words; prior therapy; cited from earlier work
in vitro = conditions: human, cem cells
[6] = Cellular toxicity in T-lymphoblastoic cell line (CEM), cell number 3 days post treatment; assay type: cell-based; conditions: human; CEM cells, 3 days; read-out: Cytotoxicity ID50
Description: (§1) To determine the cellular toxicity of the present compounds, the T-lymphoblastoic cell line (CEM) was used. Cells were subjected to varying concentrations of the drug(s) and cell numbers were determined 3 days post treatment by the method described by Chen, C-H and Cheng, Y-C J. Biol. Chem., 264, 11934 (1989).

CEM cells [7] = assay: as above; assay type: cell-based; conditions: in words
Description: as §1

HBV [8] = assay: Anti-HBV effects: viral DNA from secreted particles of the 2.2.15 human hepatoma cell line carrying HBV (Southern analysis); assay type: cell-based, Hepatitis B virus
Description: The biological activity of the present compounds was assessed as described by Doong, S-L, et al., Proc. Natl. Acad. Sci. U.S.A 88, 8495-8499 (1991). The human hepatoma cell line carrying the HBV (designated 2.2.15) kindly provided by Dr. G. Acs was used in the study. Price, et al., Proc. Natl. Acad. Sci. U.S.A. 86, 8541 (1989). Briefly, Six day-old cultures were treating with varying concentrations of the drug in the culture medium (Minimum essential medium with Earl's salts and 10% fetal bovine serum). The drug was left in the culture medium for a period of 3 days after which period the medium was aspirated and fresh medium containing the same concentration(s) of the dry was added. At the end of the subsequent 3 day period the culture medium was harvested. The culture medium was processed for obtaining the virions by the polyethylene glycol precipitation method (Doong, et al., supra). Viral DNA thus recovered from the secreted particles was subjected to Southern analysis. Inhibition of the viral replication was determined by the comparison of the viral DNA from drug-treated versus control cultures not treated with the drug.

HIV-1 [9] = assay: Anti-HIV effects in T-lymphoblastoid cell line MT-2 infected with HIV-1; assay type: cell-based; conditions: Human immunodeficiency virus 1, MT2, MT-2 cells, read-out: Anti-HIV ID50
Description: Anti-HIV effects were determined using the T-lymphoblastoid cell line, MT-2 infected with the HIV-1 virus. The inhibition was determined by the method of Larder, B. A., et al., Antimicrob. Agents Chemother., 34, 436 (1990).

## 2',3'-dideoxy-2',3'-didehydroguanosine [Carbovir]
[1]
  activity against HIV: significant activity

## Nc1nc(=O)n([C@@H]2CS[C@H](CO)O2)cc1F (relative stereo) [(±)5-FSddC]
Hepatitis B virus
  activity against Hepatitis B virus in culture: potent activity

## Nc1ccn([C@@H]2CS[C@H](CO)O2)c(=O)n1 (relative stereo) [(±) SddC, (+) and (-)-2',3'-Dideoxy-3'-thiacytidine]
Hepatitis B virus
  activity against Hepatitis B virus in culture: potent inhibitors of Hepatitis B virus

## Nc1ccn([C@H]2CS[C@@H](CO)O2)c(=O)n1 (stereo in doubt) [(-)S-ddC, (-)-2',3'-Dideoxy-3'-thiacytidine]
Mitochondrial DNA
  IC50: > 50000 nM
CEM cells [2]
  CC50: 50000 nM
Hepatitis B virus
  activity against Hepatitis B virus in culture: potent activity
HBV [3]
  IC50: 10 nM
HIV-1 [4]
  IC50: 2000 nM

## Nc1ccn([C@H]2C=C[C@@H](CO)O2)c(=O)n1 [2',3'-dideoxy-2',3'-didehydrocytidine]
[1]
  activity against HIV: significant activity

## [N-]=[N+]=N[C@H]1C[C@H](n2ccc(=O)[nH]c2=O)O[C@@H]1CO [3'-azido-2',3'-dideoxyuridine]
[1]
  activity against HIV: significant activity

## Nc1ncnc2c1ncn2[C@H]1C[C@H](F)[C@@H](CO)O1 [3'-fluoro-2',3'-dideoxyadenosine]
[1]
  activity against HIV: significant activity

## Cc1cn([C@H]2C[C@H](F)[C@@H](CO)O2)c(=O)[nH]c1=O [3'-fluoro-3'-deoxythymidine]
[1]
  activity against HIV: significant activity

## Cc1cn([C@H]2C[C@H](N=[N+]=[N-])[C@@H](CO)O2)c(=O)[nH]c1=O [AZT]
[5]
  success in treatment of hepatitis: little, if any, success

## Cc1cn([C@H]2C=C[C@@H](CO)O2)c(=O)[nH]c1=O [Compound D4T, 3'-deoxy-2',3'-didehydrothymidine]
[1]
  activity against HIV: significant activity

## OC[C@@H]1CC[C@H](n2cnc3c(O)ncnc32)O1 [DDI, 2',3'-dideoxyinosine]
[1]
  activity against HIV: significant activity

## Nc1ccn([C@@H]2CC[C@H](CO)O2)c(=O)n1 [L-ddC, 1-(2,3-dideoxy-beta-L-ribofuranosyl)cytosine]
In vitro
  IC50: > 100000 nM
[6]
  CC50 at 72 h: 54000 ± 20000 nM
CEM cells [7]
  cellular effects: minimal cellular effects
CEM cells [7]; compared with ddC
  cellular cytotoxicity as compared to ddC: considerably less
HBV [8]; Hepatitis B virus, 2.2.15 cells, read-out: Anti-HBV ID50
  IC50: 10 nM
HBV [8]; in words
  inhibition of HBV DNA replication: efficiently inhibited
HBV [8]; in words, relative activity
  activity against HBV: several fold higher activity against HBV
HIV-1 [9]
  IC50: 8000 nM

## Nc1nc2c(ncn2COCCO)c(=O)[nH]1 [acyclovir]
[5]
  success in treatment of hepatitis: little, if any, success

## Nc1ncnc2c1ncn2[C@@H]1O[C@H](CO)[C@@H](O)[C@@H]1O [adenine arabinoside]
[5]
  success in treatment of hepatitis: limited success

## Nc1ncnc2c1ncn2[C@@H]1O[C@H](COP(=O)(O)O)[C@@H](O)[C@@H]1O [ara-AMP]
[5]
  success in treatment of hepatitis: limited success

## Nc1ccn([C@H]2CC[C@@H](CO)O2)c(=O)n1 [ddC, 2',3'-dideoxycytidine]
Mitochondrial DNA
  IC50: 22 nM
Mitochondrial DNA; in words
  effects on host mitochondrial DNA: significant effects on host mitochonrial DNA
CEM cells [2]
  CC50: 10000 nM
CEM cells [2]; in words, compared with L-ddC
  cytotoxicity compared with L-ddC: much more cytotoxic than L-ddC
[1]
  activity against HIV: among the most potent inhibitors of HIV
[1]; listed as DDC
  activity against HIV: significant activity
HBV [3]
  IC50: 2800 nM
HIV-1 [4]
  IC50: 1000 nM

## O=C(O)P(=O)(O)O [foscarnet]
[5]
  success in treatment of hepatitis: little, if any, success

## interferon alpha
[5]
  success in treatment of hepatitis: limited success
